We go through two compounds from patent US20070197557A1, “Fungicidal mixtures” (Basf Aktiengesellschaft, priority 2004, published 2007).

The test system of this test is Erysiphe [syn. Blumeria] graminis forma specialis. tritici. Put plainly: activity against mildew of wheat, 5 day protective application. As to conditions: evaluated 7 days after inoculation, Abbot's formula. The class given is in vivo. How it is done:
1% by weight of the emulsifier Uniperol® EL (wetting agent having emulsifying and dispersant action based on ethoxylated alkylphenols) was added to this solution, and the mixture was diluted with water to the desired concentration.
Use example—activity against mildew of wheat caused by Erysiphe [syn. Blumeria] graminis forma specialis. tritici, 5 day protective application
Theor emulsion had been prepared as described above. […] The test plants were then placed in a greenhouse at temperatures between 20 and 24° C. and at 60 to 90% relative atmospheric humidity. After 7 days, the extent of mildew development was determined visually in % infection of the total leaf area
The visually determined percentages of infected leaf areas were converted into efficacies in % of the untreated control:
The efficacy (E) is calculated as follows using Abbot's formula: E=(1-α/β)·100 • α corresponds to the fungal infection of the treated plants in % and • β corresponds to the fungal infection of the untreated (control) plants in %
An efficacy of 0 means that the infection level of the treated plants corresponds to that of the untreated control plants; an efficacy of 100 means that the treated plants were not infected.

Where [1] appears, read: 12.5 ppm active compound in the spray liquor.

For the compound `CCCOc1nc2ccc(I)cc2c(=O)n1CCC` [II.1-1, proquinazid], the “Efficacy in % of the untreated control” value under setting [1] is 67% and the “Efficacy in % of the untreated control” value (25 ppm active compound in the spray liquor) was found to be 80%.

Consider `CC1CCN(c2c(-c3c(F)cc(F)cc3F)c(Cl)nc3ncnn23)CC1` [I, 5-chloro-7-(4-methylpiperidin-1-yl)-6-(2,4,6-trifluorophenyl)-[1,2,4]triazolo[1,5-a]pyrimidine], for which the “Efficacy in % of the untreated control” value under setting [1] is given as 9% and the “Efficacy in % of the untreated control” value (50 ppm active compound in the spray liquor) was 35%.
